From PubChem BioAssay AID248 (DTP/NCI, 2004)
Values joined by “and” are separate entries in the source; they are usually repeats but may differ in a detail not shown here. Identical values can stand only once. Toxic doses and inconclusive results are not listed. No stated cut-off is given here; in the data, active means T/C of 150% or more; inactive means T/C below 125%.

System: L1210 leukemia ip in BDF1 mice, survival T/C
Assay: NCI In Vivo Anticancer Drug Screen. Data for tumor model L1210 Leukemia (intraperitoneal) in B6D2F1 (BDF1) mice
Conditions: endpoint: mean survival time, higher = longer survival
Procedure, shortened: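 Transplantable tumor model; survival measured in treated vs vehicle control mice. Value = treated/control.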

[1] = dose: 100.0 mg/kg/injection, schedule: Q04DX002 (ip), vehicle: saline with Tween-80
[2] = dose: 200.0 mg/kg/injection, schedule: Q04DX002 (ip), vehicle: saline with Tween-80
[3] = dose: 100.0 mg/kg/injection, schedule: Q01DX009 (ip), vehicle: Klucel (hydroxypropylcellulose) (HPC)
[4] = dose: 100.0 mg/kg/injection, schedule: Q04DX003 (ip), vehicle: Klucel (hydroxypropylcellulose) (HPC)
[5] = dose: 200.0 mg/kg/injection, schedule: Q01DX009 (ip), vehicle: Klucel (hydroxypropylcellulose) (HPC)
[6] = dose: 200.0 mg/kg/injection, schedule: Q04DX003 (ip), vehicle: Klucel (hydroxypropylcellulose) (HPC)
[7] = dose: 400.0 mg/kg/injection, schedule: Q01DX009 (ip), vehicle: Klucel (hydroxypropylcellulose) (HPC)
[8] = dose: 400.0 mg/kg/injection, schedule: Q04DX003 (ip), vehicle: Klucel (hydroxypropylcellulose) (HPC)
[9] = dose: 100.0 mg/kg/injection, schedule: Q04DX002 (ip), vehicle: Klucel (hydroxypropylcellulose) (HPC)
[10] = dose: 100.0 mg/kg/injection, schedule: Q01DX001 (ip), vehicle: saline
[11] = dose: 50.0 mg/kg/injection, schedule: Q01DX009 (ip), vehicle: saline with Tween-80
[12] = dose: 100.0 mg/kg/injection, schedule: Q01DX009 (ip), vehicle: saline with Tween-80
[13] = dose: 100.0 mg/kg/injection, schedule: Q04DX003 (ip), vehicle: saline with Tween-80
[14] = dose: 100.0 mg/kg/injection, schedule: Q01DX001 (ip), vehicle: Klucel (hydroxypropylcellulose) (HPC)
[15] = dose: 200.0 mg/kg/injection, schedule: Q01DX001 (ip), vehicle: Klucel (hydroxypropylcellulose) (HPC)
[16] = dose: 100.0 mg/kg/injection, schedule: Q01DX001 (ip), vehicle: carboxymethylcellulose (CMC)
[17] = dose: 400.0 mg/kg/injection, schedule: Q01DX001 (ip), vehicle: carboxymethylcellulose (CMC)
[18] = dose: 100.0 mg/kg/injection, schedule: Q04DX003 (ip), vehicle: saline
[19] = dose: 200.0 mg/kg/injection, schedule: Q04DX003 (ip), vehicle: saline
[20] = dose: 200.0 mg/kg/injection, schedule: Q04DX003 (ip), vehicle: saline with Tween-80
[21] = dose: 200.0 mg/kg/injection, schedule: Q04DX002 (ip), vehicle: Klucel (hydroxypropylcellulose) (HPC)
[22] = dose: 400.0 mg/kg/injection, schedule: Q04DX003 (ip), vehicle: saline with Tween-80
[23] = dose: 25.0 mg/kg/injection, schedule: Q04DX003 (ip), vehicle: saline
[24] = dose: 200.0 mg/kg/injection, schedule: Q01DX009 (ip), vehicle: saline with Tween-80

Measured: T/C

O=C(NC(=S)Nc1ccc2ccccc2c1)c1ccc(Cl)cc1Cl
inactive: dose: 100.0 mg/kg/injection, schedule: Q01DX001 (ip), vehicle: saline with Tween-80 100 % of control | [1] 93 % of control and 90 % of control | dose: 200.0 mg/kg/injection, schedule: Q01DX001 (ip), vehicle: saline with Tween-80 101 % of control | [2] 93 % of control and 96 % of control | dose: 400.0 mg/kg/injection, schedule: Q01DX001 (ip), vehicle: saline with Tween-80 96 % of control | dose: 400.0 mg/kg/injection, schedule: Q04DX002 (ip), vehicle: saline with Tween-80 104 % of control and 86 % of control

Cc1cc(C)c(C(=O)c2ccc([N+](=O)[O-])cc2)c(C)c1
inactive: [3] 98 % of control | [4] 105 % of control | [5] 86 % of control | [6] 95 % of control | [7] 86 % of control | [8] 94 % of control

CC(=O)OC1CCC2(C)C(=CCC3C2CCC2(C)C3CC3C(c4ccccc4)=NN(c4ccccc4)C32C(=O)c2ccccc2)C1 (configuration not stated)
inactive: dose: 25.0 mg/kg/injection, schedule: Q04DX002 (ip), vehicle: Klucel (hydroxypropylcellulose) (HPC) 104 % of control | dose: 50.0 mg/kg/injection, schedule: Q04DX002 (ip), vehicle: Klucel (hydroxypropylcellulose) (HPC) 93 % of control | [9] 111 % of control

S=c1[nH]ccs1
inactive: dose: 25.0 mg/kg/injection, schedule: Q01DX001 (ip), vehicle: saline 100 % of control | dose: 50.0 mg/kg/injection, schedule: Q01DX001 (ip), vehicle: saline 98 % of control | [10] 98 % of control and 99 % of control

N#CC(C(N)=O)c1ccccc1 (configuration not stated)
inactive: dose: 25.0 mg/kg/injection, schedule: Q01DX009 (ip), vehicle: saline with Tween-80 86 % of control | dose: 25.0 mg/kg/injection, schedule: Q04DX003 (ip), vehicle: saline with Tween-80 99 % of control | [11] 94 % of control | dose: 50.0 mg/kg/injection, schedule: Q04DX003 (ip), vehicle: saline with Tween-80 100 % of control | [12] 90 % of control | [13] 98 % of control and 100 % of control

O=c1[nH]c(Cc2ccccc2)c([N+](=O)[O-])c(=O)[nH]1
inactive: dose: 50.0 mg/kg/injection, schedule: Q01DX001 (ip), vehicle: Klucel (hydroxypropylcellulose) (HPC) 94 % of control | [14] 103 % of control | [15] 97 % of control

Oc1ccc(Cl)cc1C=Nc1cnc2ccccc2c1
inactive: [16] 88 % of control | [17] 101 % of control

O=C(O)C(Oc1ccccc1O)C(=O)O
inactive: [18] 95 % of control | [19] 93 % of control

O=C1CCCCCCNCCCCCC1
inactive: dose: 100.0 mg/kg/injection, schedule: Q01DX001 (ip), vehicle: acetone 97 % of control | dose: 200.0 mg/kg/injection, schedule: Q01DX001 (ip), vehicle: acetone 108 % of control | dose: 400.0 mg/kg/injection, schedule: Q01DX001 (ip), vehicle: acetone 103 % of control

COC(=O)/C(C#N)=C\c1ccccc1
inactive: [13] 95 % of control | [20] 101 % of control

O=C(Nc1cccc(Cl)c1)Oc1ccc(Cl)cc1Cl
inactive: [1] 96 % of control | [2] 100 % of control

CC1CC(=O)NN1C(O)c1ccc2c(c1)OCO2 (configuration not stated)
inactive: [9] 97 % of control | [21] 97 % of control

COc1cc(C2CC(C)=C(C)CC2C(=O)O)cc(OC)c1OC (configuration not stated)
inactive: [13] 92 % of control | [20] 97 % of control | [22] 96 % of control

CC(C)(S)C(N)C(N)=O (configuration not stated)
inactive: [9] 103 % of control | [21] 97 % of control | dose: 400.0 mg/kg/injection, schedule: Q04DX002 (ip), vehicle: Klucel (hydroxypropylcellulose) (HPC) 97 % of control

CCN(CC)C(C)CN1c2ccccc2Sc2ccccc21 (configuration not stated)
inactive: dose: 25.0 mg/kg/injection, schedule: Q01DX009 (ip), vehicle: Klucel (hydroxypropylcellulose) (HPC) 97 % of control | [23] 88 % of control | dose: 50.0 mg/kg/injection, schedule: Q01DX009 (ip), vehicle: Klucel (hydroxypropylcellulose) (HPC) 94 % of control | [3] 103 % of control | [18] 96 % of control | [19] 93 % of control

CC/S(=N\S(=O)(=O)c1ccc(C)cc1)c1ccccc1 (configuration not stated)
inactive: [12] 108 % of control | [24] 100 % of control | dose: 400.0 mg/kg/injection, schedule: Q01DX009 (ip), vehicle: saline with Tween-80 100 % of control

CN(C)Cc1c(C(O)(c2ccccc2)c2ccccc2)cc2ccccc2c1Cl
inactive: dose: 50.0 mg/kg/injection, schedule: Q01DX001 (ip), vehicle: carboxymethylcellulose (CMC) 94 % of control | [16] 94 % of control | dose: 200.0 mg/kg/injection, schedule: Q01DX001 (ip), vehicle: carboxymethylcellulose (CMC) 102 % of control | [17] 96 % of control

Cc1cccc(S(=O)(=O)CS(=O)(=O)c2cccc(C)c2)c1
inactive: dose: 75.0 mg/kg/injection, schedule: Q01DX001 (ip), vehicle: carboxymethylcellulose (CMC) 102 % of control | dose: 150.0 mg/kg/injection, schedule: Q01DX001 (ip), vehicle: carboxymethylcellulose (CMC) 96 % of control | dose: 300.0 mg/kg/injection, schedule: Q01DX001 (ip), vehicle: carboxymethylcellulose (CMC) 91 % of control

O=C(N/N=C/c1ccc(-c2ccccc2)cc1)Nc1ccccc1
inactive: [12] 92 % of control | [13] 92 % of control | [24] 96 % of control | [20] 100 % of control | [22] 93 % of control

CN1CC(=O)NC1=O
inactive: dose: 250.0 mg/kg/injection, schedule: Q01DX Z (ip), vehicle: saline 94 % of control | dose: 500.0 mg/kg/injection, schedule: Q01DX Z (ip), vehicle: saline 97 % of control | dose: 1000.0 mg/kg/injection, schedule: Q01DX Z (ip), vehicle: saline 96 % of control

CCOc1ccc2nc(/C=C\c3cc4c5c(c3)CCCN5CCC4)ccc2c1
inactive: [3] 87 % of control | [4] 95 % of control | [5] 97 % of control | [6] 98 % of control | [7] 97 % of control | [8] 98 % of control

C[S+]1CCSCC1
inactive: [23] 90 % of control | dose: 50.0 mg/kg/injection, schedule: Q04DX003 (ip), vehicle: saline 87 % of control | [18] 117 % of control

FC1=C(F)C2(F)C3CCC(O3)C2(F)C(Br)=C1F (configuration not stated)
inactive: [14] 99 % of control | [4] 101 % of control | [15] 91 % of control | [6] 101 % of control | dose: 400.0 mg/kg/injection, schedule: Q01DX001 (ip), vehicle: Klucel (hydroxypropylcellulose) (HPC) 100 % of control | [8] 98 % of control

O=S(=O)(OC1CCCCC1Br)c1ccc(Br)cc1 (configuration not stated)
inactive: [11] 98 % of control | [12] 95 % of control

CSc1nccc2c1ncn2C1OC(CO)C(O)C1O (configuration not stated)
inactive: [10] 104 % of control | dose: 200.0 mg/kg/injection, schedule: Q01DX001 (ip), vehicle: saline 95 % of control

CC(=O)Nc1ccc2c(O)cc(S(=O)(=O)O)cc2c1
inactive: dose: 50.0 mg/kg/injection, schedule: Q01DX009 (ip), vehicle: saline 95 % of control | dose: 100.0 mg/kg/injection, schedule: Q01DX009 (ip), vehicle: saline 99 % of control | [18] 101 % of control | dose: 200.0 mg/kg/injection, schedule: Q01DX009 (ip), vehicle: saline 100 % of control | [19] 104 % of control | dose: 400.0 mg/kg/injection, schedule: Q04DX003 (ip), vehicle: saline 98 % of control

NC(=O)c1ccc[n+](CCCl)c1
inactive: dose: 62.5 mg/kg/injection, schedule: Q01DX010 (ip), vehicle: saline 94 % of control | dose: 125.0 mg/kg/injection, schedule: Q01DX010 (ip), vehicle: saline 93 % of control
